Several values for one entry are separate records, joined by “and”; a condition that tells them apart may be missing. Equal entries are not always repeated.
Columns and labels:
Assay type in all cases: in vivo, dog
A. caninum [1] = test: Canine vaccine trial with Ac-TMP, Ac-AP, Ac-APR-1, oral challenge with 400 A. caninum L3
From the text: Study dogs and animal husbandry: Following protocol approval by The George Washington University Institutional Animal Care and Use Committee (IACUC), purpose bred, parasite naïve, male beagles 8±1 week of age were purchased, identified by ear tattoo, and maintained in the AALAC (Association for Assessment and Accreditation of Laboratory Animal Care) accredited George Washington University Animal Research Facility. The dogs were housed in a room dedicated for the study, at a room temperature of 70±4° F., with 10-15 air changes per hour comprised of 100 percent fresh air, and 12 hr light cycles alternating with 12 hr dark cycles. The airflow and timer functions were monitored daily. The dogs were fed on a diet of Teklad Certified Dog Chow #8727, supplemented with a canned soft diet in the event of anorexia. The drinking water was piped from a filter plant and delivered via automatc water system; water analysis was performed by the U.S. Army Corps of Engineers. Water from the facilities automatic system is cultured for bacteria and fungi annually. The pens were flushed daily and sanitized every two weeks. Dogs within a given study group were permitted to live together and socialize prior to the hookworm larval challenge, but were caged individually post-infection. All dogs were quarantined for approximately one week before beginning the vaccine trial. Prior to vaccination a complete blood count (CBC), serum chemistries, and a pre-vaccination serum sample were obtained.
Vaccine study design and sample size: The vaccine trial was designed to test three different antigens, each formulated with alum, as well as an alum adjuvant control. A total of 24 dogs were randomly assigned into four groups comprised of 6 dogs each. The canine sample size was selected on the ability to detect a 40-50 percent reduction in the numbers of adult hookworms in the small intestines of the vaccinated group relative to control dogs, at a statistical power of 80 percent (alpha=0.05, two-tailed). The data were derived from the mean and standard deviation of adult hookworms previously recovered from age-matched dogs infected with 400 A. caninum L3 (Hotez et al, 2002).
Recombinant Antigens: Each group of 6 dogs was vaccinated with recombinant hookworm proteins expressed as fusion proteins either in Escherichia coli or in an insect cell line with baculovirus. Ac-AP (Cappello et al, 1995; 1996) and Ac-TMP, were expressed in E. coli as pET 28 (Novagen) fusion proteins containing a polyhistidine tag (Cappello et al, 1996). Ac-APR-1 (Harrop et al, 1996) was expressed in a baculovirus pBacPAK6 vector (Clontech), modified to contain a polyhistidine-encoding sequence and additional restriction enzyme sites (Brindley et al, 2001). Recombinant Ac-AP and Ac-TMP fusion proteins were then purified by nickel affinity chromatography, followed by a second step of purification. In the case of Ac-AP (Cappello et al, 1995; 1996), the recombinant protein was purified by mono-S (Amersham-Pharmacia) ion exchange chromatography, while Ac-TMP (Zhan et al, 2002) was purified by superdex 75 (Amersham-Pharmacia) gel filtration chromatography. Ac-APR-1 (Harrop et al, 1996) was purified by substrate affinity chromatography using pepstatin agarose (Brindley et al, 2001). The antigen stock protein concentration was determined by Pierce Micro BCA assay (Pierce Chemicals) or by the absorbance of the sample at […] using an extinction coefficient that was calculated from the deduced amino acid composition of the fusion protein. The amount of alum adsorbed protein in each dose of antigen was measured by the Pierce Micro BCA assay using a bovine serum albumin standard. The relative purity of each of the antigens relative to contaminating E. coli or insect cell proteins was determined by analysis on sodium dodecyl sulfate polyacrylamide gel electrophoresis (SDS-PAGE). […]

[2] = tested on: antibody to recombinant proteins; test: Pre-challenge antibody titer ELISA, trial with Ac-ASP-2, Ac-API, Ac-MEP-1, Ac-APR-1 in AS03
Description: (§1) The vaccine trial was designed to test Ac-API, Ac-ASP-2, Ac-MEP-1, Ac-APR-1 formulated with Adjuvant System 03 (AS03) obtained from GlaxoSmithKline (GSK). The rationale for selecting AS03 as an adjuvants is discussed elsewhere (Stoute et al, 1997). The ten purpose bred beagles were randomized into five arms: immunized with the adjuvant-formulated recombinant proteins or adjuvant only (control). To make six doses of antigen formulated with AS03, […] of recombinant protein (0.3 ml of antigen at a concentration of 2 mg.ml^−1) was mixed with 1.2 ml of 20 mM Tris-HCl, 0.5 M NaCl, pH 7.9 and 1.5 ml of AS03; the contents of the tube were vortex mixed for 30 seconds then shaken at low speed for 10 minutes. Dogs were immunized with 100 g of formulated antigen in a final volume of 0.5 ml. ASO3 only control was prepared as described above, with PBS included instead of antigen. Formulation of GSK adjuvants were conducted according to the protocol provided by GSK. All injections were performed intramuscularly (IM). Test and control articles were prepared on the day of injection. All animals received 4 immunizations approximately 3 weeks apart.
Beagles were immunized with formulated Ac-ASP-2 as previously described (Loukas et al, 2004). The vaccines were administered IM three times beginning at age 62+/−4 days. Boosts were administered to the dogs at intervals of 21 days. Blood was drawn at least once every 21 days and serum was separated from cells by centrifugation. Each animal's specific antibody response was evaluated by indirect ELISA using serum taken prior to the infective challenge (Loukas et al, 2004). Recombinant Ac-ASP-2 was coated onto microtiter plates at a concentration of 5 g.ml^−1. Dog sera were titrated between 1:100 and 1:2×10^6 to determine endpoint titers. Anti-canine IgG1, IgG2 and IgE antibodies conjugated to horse-radish peroxidase (Bethyl Laboratories) were used at a dilution of 1:1,000.

A. caninum [3] = test: Canine vaccine trial with Ac-ASP-2, Ac-API, Ac-MEP-1, Ac-APR-1 in AS03, footpad challenge with 500 A. caninum L3
Description: as §1, with “The ten purpose bred beagles were randomized into five arms: immunized with the adjuvant-formulated recombinant proteins or adjuvant only (control).” left out
A. caninum larvae were cultured from eggs collected in the feces of infected dogs. All hookworms in the infective challenge were approximately equal age (17±7 days post hatching). The species identity of the infective larvae were validated using PCR. All dogs were infected by the footpad method with the same dose of 500 L3 of A. caninum (Zhan et al, 2001). Larval challenge occurred on one of three consecutive days (at age 120+/−9 days). Fourteen-sixteen days after the final immunization, dogs were anesthetized using a combination of ketamine and xylazine (20 mg.kg^−1 and 10 mg.kg^−1 respectively), and 500 A. caninum L3 in a final volume of […] were applied to the footpad.

[4] = tested on: antigen-specific IgG1 and IgG2; test: Antibody titers in HV-12 (Ac-CYS, Ac-MTP-2, Ac-GST in AS03, irradiated L3)
Description: (§2) Brief Outline of Study Sections: Purpose bred beagles were randomized into five groups. […] groups were given one of three candidate vaccines: Ac-Cystatin, Ac-MTP-2 and Ac-GST in combination with the adjuvant ASO3. One group will serve as the negative control receiving the adjuvant only. Another group will be a positive control immunized with irradiated infective larvae. Each animal's specific antibody response was evaluated by direct ELISA using serum taken prior to the infective challenge. Cellular immune responses were assessed by peripheral (blood cells) lymphoproliferative responses to specific recombinant antigens and/or crude extract of infective larvae (L3) or adult worms. Local cellular immune responses were performed post mortem with lymphocytes extracted from mesenteric lymph nodes and, if considered, spleen. After immunization, animals were challenged with a known number dose of infective third stage larvae of A. caninum. Quantitative ova counts, used to evaluate worm burden, were determined from fecal samples collected three times per week. […] Tissues from different organs were examined macro and microscopically to assess any consequence of the vaccine, parasite or immune related lesions.
(§3) Administration of Test and Control Articles: The vaccines and adjuvant were administered intramuscularly (IM) […] beginning when the dogs are 62+/−4 days old. The vaccines are boosted at 21+/−3-day intervals. Four doses of the vaccines were given 21 days apart (days 0, 21, 42, and […]). The dogs were challenged percutaneously with 500 A. caninum L3, 14 days after the final vaccination.
Serum Samples for Quantitative ELISA Antibody Titers: Animals treated with vaccines containing foreign proteins develop an immune response resulting in an increased level of high affinity serum antibodies that are directed against the antigen. […] White blood cells were collected for immunological measurements nine (9) days after the last boost and at the time of euthanasia to address the cellular immune response status and cytokine production upon in vitro restimulation of lymphocytes.

A. caninum [5] = test: Canine vaccine trial HV-12, percutaneous challenge with 500 A. caninum L3
Description: as §2, §3
Challenge Infection: Ancylostoma caninum larvae were cultured from the eggs collected in the feces of infected dogs. All hookworms in the infective challenge were approximately equal age (17±7 days). The species identity of the infective larva dose were validated using PCR DNA amplification and specific oligonucleotide primers. Overnight-collected feces of A. caninum-infected dogs were cultured, extracted and counted. All dogs were infected by the footpad method with the same dose (500+/−5%, of 3rd stage larvae of A. caninum. Larval challenge occurs on one of three consecutive days (at age 120+/−9 days) in 5 series. To minimize the difference in the infective L3 doses, each series included one dog from each (A-E group). […]
Adult Worm Count. Adult worms retained in the small and large intestines were collected. The small and large bowel will be collected and the small intestine will be suspended (the large bowel will not be suspended) in a container and incubated for at least two hours at 35° C. saline to collect the adult parasites. The adult worms were separated from the intestinal contents, counted, and preserved in formalin for subsequent count and analysis of sex, length and weight. Results and Analysis

Ac-APR-1: A. caninum aspartic protease (cathepsin), SEQ ID NO: 50; baculovirus expressed
% Decrease of adult hookworms in the small intestines relative to alum-injected dogs (A. caninum [1]; group): 18%
% Increase of adult hookworms in the colons relative to alum-injected dogs (A. caninum [1]; group): 300%
adult A. caninum hookworms in the colons, Median (A. caninum [1]; group median, alum control 4): 27
adult hookworms in the small intestines, Median (A. caninum [1]; group median, alum control 180): 138
ratio of adult hookworms in the small intestine relative to the colon (A. caninum [1]; vaccinated group, alum-injected dogs 43.9): 7.3
antibody response, in words ([2]; AS03): only a single dog developed a substantial antibody titer
Pre-challenge antibody titer, IgG1, GEOMEAN ([2]; geometric mean of group): 100
Pre-challenge antibody titer, IgG2, GEOMEAN ([2]; geometric mean of group): 562
Pre-challenge antibody titer, IgG1 ([2]; individual dogs): 100
Pre-challenge antibody titer, IgG2 ([2]; individual dogs): 500 (3×) and 4,500 and 100
worm burdens, Maximum (A. caninum [3]; 5 dogs): 250.00
worm burdens, Minimum (A. caninum [3]; 5 dogs): 119.00
worm burdens, Mean (A. caninum [3]; 5 dogs, ASO3 control 203.8000): 177.0000
worm burdens, Median (A. caninum [3]; 5 dogs, ASO3 control 215.0000): 168.0000
worm burden reduction in a single dog (A. caninum [3]; dog A3 (ASP-2 group), dog D2 (APR-1 group), versus control mean): 42%
worm burden, Colon, Male, Average (A. caninum [3]; group average, AS03 control 5): 4
worm burden, Colon, Female, Average (A. caninum [3]; group average, AS03 control 9): 6
worm burden, Intestine, Female, Average (A. caninum [3]; group average, AS03 control 95): 79
worm burden, Intestine, Male, Average (A. caninum [3]; group average, AS03 control 96): 83
worm burden, Total, Average (A. caninum [3]; group average, AS03 control 204): 177
worm burden, Colon, Female (A. caninum [3]; individual dogs): 1 and 18 and 3 and 8 and 0
worm burden, Colon, Male (A. caninum [3]; individual dogs): 0 (2×) and 11 and 3 and 5
worm burden, Intestine, Female (A. caninum [3]; individual dogs): 76 and 41 and 69 and 87 and 122
worm burden, Intestine, Male (A. caninum [3]; individual dogs): 65 and 47 and 131 and 124 and 49
worm burden, Total (A. caninum [3]; individual dogs): 168 and 119 and 146 and 202 and 250
fecal eggs (fecundity), in words (A. caninum [3]; relative to the control group): significant reduction in fecal eggs

B1: Ac-GST: A. caninum glutathione S transferase, SEQ ID NO: 77; Pichia pastoris expressed (protein, listed as Ancylostoma caninum)
chain: MVHYKLTYFNGRGLGECARQLFALADQQYEDIRVTHEDFPEIKPNLPFGQLPLLNEDGKELAQSNAINRYLARKFGFAGKTPFEEALVDSLADQMTDYRVEIKPFVYTAYGHQKFGDLETLKKDVMLPARDKFLGFITKFLKNNPSGFLVGDSVTWIDLLLAEHASDIQSKVPEYLEGFPEVKAHMEKVRSIPKLKKWIETRPETHF
Antibody titers, IgG1, GEOMEAN ([4]; geometric mean of group): 13,500
Antibody titers, IgG2, GEOMEAN ([4]; geometric mean of group): 50,452
Antibody titers, IgG1 ([4]; individual dogs, after four immunizations, L3 Extract = group E dogs vaccinated with irradiated L3): 13,500
Antibody titers, IgG2 ([4]; individual dogs, after four immunizations, L3 Extract = group E dogs vaccinated with irradiated L3, listed as GST): 40,500 (4×) and 121,500
worm burden reduction relative to AS03 controls (A. caninum [5]; dog, in vivo, listed as GST): 40% and 41%
Adult Hookworm Worm Counts, Intestine, Male, Average (A. caninum [5]; group average, AS03 control 64): 34
Adult Hookworm Worm Counts, Intestine, Female, Average (A. caninum [5]; group average, AS03 control 71): 44
Adult Hookworm Worm Counts, Total, Average (A. caninum [5]; group average, AS03 control 137): 83
Adult Hookworm Worm Counts, Colon, Female (A. caninum [5]; individual dogs, listed as GST): 0 (2×) and 3 and 4 and 5
Adult Hookworm Worm Counts, Colon, Male (A. caninum [5]; individual dogs, listed as GST): 0 (2×) and 4 and 7 and 2
Adult Hookworm Worm Counts, Intestine, Female (A. caninum [5]; individual dogs, listed as GST): 81 and 26 and 36 (2×) and 41
Adult Hookworm Worm Counts, Intestine, Male (A. caninum [5]; individual dogs, listed as GST): 50 and 34 and 19 and 33 (2×)
Adult Hookworm Worm Counts, Total (A. caninum [5]; individual dogs, listed as GST): 131 and 67 and 55 and 80 and 81

Reference: patent US7303752B2, “Hookworm vaccine” (The George Washington University, priority 2001, dated 2007)
